Laboratory results from patent US20210348125A1, “INDUCED STEM MEMORY T CELLS AND METHODS OF USE THEREOF” (Augusta University Research Institute, Inc., priority 2017, published 2021).

Tests used:
ERK1 or ERK2 = settings: cited from earlier work
MEK1 = MEK1 (Homo sapiens, UniProt Q02750); settings: cited from earlier work
AB1-HA tumor model = settings: CTX treatment at Day 9; cited from earlier work
pMel-1 CD8^+ T-cells [1] = assay: In vitro activation of pMel-1 CD8+ T-cells with gp100 peptide with or without MEKi; type: cell-based, mouse
Experimental: Mice and cell culture. 4-6-week-old C57BL/6 mice (wild-type (WT) and pMel-1) from Jackson Laboratory or in-house bred pMel-1 mice with transgenic CD8^+ T-cells having TCR from melanoma-specific gp10025-33 peptide were used as outlined in various experiments. Animals had free access to water and food. All experiments were performed under protocols approved by the Augusta University Georgia Cancer Center Institutional Animal Care and Use Committee (IACUC). Cancer cell lines used in the present study included TC1 (kindly provided by Dr. T-C Wu at Johns Hopkins University) and B16-melanoma (obtained from American Type Culture Collection (ATCC)). […] Primary murine CD8^+ cells were isolated by fluorescence-activated cell sorting (FACS) and in some cases by negative selection using magnetic beads (Miltenyi Biotec) and cultured in RPMI 1640 medium supplemented with 10% FBS, 2 mM glutamine, 10 mM HEPES and 55 μM β-mercaptoethanol. […]
Flow cytometry analyses. […] TMRM (Tetramethylrhodamine, methyl ester) is a cell-permeant, cationic, red-orange fluorescent dye that is readily sequestered by active mitochondria and has been used for estimation of mitochondrial potential was used as described before (Sukumar, M., et al., Cell Metabolism, 23: 63-76 (2016)). […]
Metabolic assays. […] OCR and ECAR were measured with an XFp flux analyzer (Seahorse Bioscience). […]

[2] = system: Abl1, AKT3, c-RAF, CamK1, CDK2, c-Met; settings: cited from earlier work
pMel-1 CD8^+ T-cells [3] = assay: Antigen re-challenge (recall response) of activated CD8+ T-cells; type: cell-based, mouse; settings: re-challenge with gp100 peptide 72 hrs; vs untreated
Source text: FIGS. 4A-4C show FACS analysis of memory phenotype of activated cells (gp100 vs gp100 +MEKi) after antigen (Ag) re-challenge with gp100 peptide for 72 hrs. […]. FIGS. 4M-4O show the scheme of ACT of B16 tumor-bearing mice with respectively activated CD8^+ T-cells as indicated FIG. 4M, estimation of tumor volume FIG. 4N and percent survival FIG. 4O in treated groups. FIGS. 4P-4R show the estimation of numbers of adoptively transferred cells in spleens of treated mice 30 days after ACT as indicated. For the untreated (UT) and control (CTX) groups where the endpoint for euthanasia was reached earlier, the mice were sacrificed and spleens harvested and stored as single-cell suspensions at −80° C. At the end of the study, all samples were stained and processed together for FACS analysis. Representative of two experiments is shown. *P<0.05, **P<0.01, ***P<0.001.
Cell activation, drug treatment and adoptive transfer. FACS-sorted CD8^+ cells from pMel-1 mice were activated with gp100 peptide ([…] (SEQ ID NO:2); 1 μM/10^6 cells/mL) either alone or in combination with MEKi (500-1000 nM) in T-cell medium supplemented with 30 units of IL2 for 48 hours unless otherwise stated. In some experiments, at 48 h cells were washed and re-incubated in IL2-containing medium supplemented with gp100 and/or anti-OX40-Ab for 72 hours. […]

MEK1, sequence (Q02750 whole entry, species assumed): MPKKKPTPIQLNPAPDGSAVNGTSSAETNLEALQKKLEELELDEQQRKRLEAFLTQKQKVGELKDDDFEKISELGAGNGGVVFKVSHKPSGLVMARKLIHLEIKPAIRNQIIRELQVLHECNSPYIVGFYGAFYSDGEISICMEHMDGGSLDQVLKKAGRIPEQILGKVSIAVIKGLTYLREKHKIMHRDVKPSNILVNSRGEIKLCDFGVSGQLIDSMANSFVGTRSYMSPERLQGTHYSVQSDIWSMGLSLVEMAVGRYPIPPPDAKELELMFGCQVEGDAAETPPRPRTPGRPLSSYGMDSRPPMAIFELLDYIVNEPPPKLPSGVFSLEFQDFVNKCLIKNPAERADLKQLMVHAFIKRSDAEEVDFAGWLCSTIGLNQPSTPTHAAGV

Compound: COc1cccc(-c2cc(=O)c3ccccc3o2)c1N [PD98059]
- direct inhibition of ERK1 or ERK2 (ERK1 or ERK2): does not directly inhibit
- MEK-1-mediated activation of MAPK (MEK1): specifically inhibits

Compound: O=P1(N(CCCl)CCCl)NCCCO1 (stereo not shown) [CTX, Cyclophosphamide]
- cure rate (AB1-HA tumor model): 75%

Compound: CC[C@H]1/C=C/C=C/C[C@@H](C)[C@H](O)[C@@](C)(O)C(=O)[C@@H](C)[C@H](O)[C@@H](C)C(=O)[C@@H](C)[C@H](O)[C@@H](C)/C=C/C(=O)O[C@@H]2[C@H](C)[C@H](CC1)O[C@]1(CC[C@H](C)[C@H](C[C@@H](C)O)O1)[C@H]2C [oligomycin]
- proliferation of MEKi-treated CD8+ T-cells with oligomycin (pMel-1 CD8^+ T-cells [1]; gp100 activated, MEKi-treated cells): inhibition of proliferation

Compound: CCOC(=O)[C@@]1(CCCCCCOc2ccc(Cl)cc2)CO1 [etomoxir]
- cell proliferation of MEKi-treated pMel-1 CD8+ T-cells in the presence of etomoxir (pMel-1 CD8^+ T-cells [1]): significant decrease in cell proliferation

Compound: Cn1c(=O)c(F)c(Nc2ccc(I)cc2F)c2c(=O)n(C[C@@H](O)CO)cnc21 [TAK-733]
- activity on Abl1, AKT3, c-RAF, CamK1, CDK2, c-Met, etc. [2]: inactive

Compound: Cn1cnc2c(F)c(Nc3ccc(Br)cc3Cl)c(C(=O)NOCCO)cc21 [Selumetinib]
- recall response, expansion of terminal effector cells (CD62L-CD44+) (pMel-1 CD8^+ T-cells [3]): more than 2.5 fold
